Source: PubChem BioAssay (NCI)
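Cultured in 96-well plates, cells were exposed to test compound for 48 hours across five concentrations. The concentration for full growth arrest is given as TGI.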

Tests used:
Test in all cases: NCI anticancer screen, dose series, 48 h
786-0 renal = system: 786-0 renal
SF-268 CNS = system: SF-268 CNS
SK-OV-3 ovarian = system: SK-OV-3 ovarian
SF-539 CNS = system: SF-539 CNS
EKVX NSCLC = system: EKVX NSCLC
NCI-H226 lung = system: NCI-H226 lung
ACHN renal = system: ACHN renal
NCI-H460 lung = system: NCI-H460 lung
UACC-62 melanoma = system: UACC-62 melanoma
COLO 205 colon = system: COLO 205 colon
NCI-H522 lung = system: NCI-H522 lung
LOX IMVI melanoma = system: LOX IMVI melanoma
DU-145 prostate = system: DU-145 prostate
UO-31 renal = system: UO-31 renal
SNB-75 CNS = system: SNB-75 CNS
SN12C renal = system: SN12C renal
MOLT-4 leukemia = system: MOLT-4 leukemia
HOP-62 NSCLC = system: HOP-62 NSCLC
TK-10 renal = system: TK-10 renal
UACC-257 melanoma = system: UACC-257 melanoma
OVCAR-8 ovarian = system: OVCAR-8 ovarian
PC-3 prostate = system: PC-3 prostate
U251 CNS = system: U251 CNS
M14 melanoma = system: M14 melanoma
CCRF-CEM leukemia = system: CCRF-CEM leukemia
OVCAR-4 ovarian = system: OVCAR-4 ovarian
MDA-MB-435 = system: MDA-MB-435
SK-MEL-5 melanoma = system: SK-MEL-5 melanoma
SNB-19 CNS = system: SNB-19 CNS
SW-620 colon = system: SW-620 colon
BT-549 breast = system: BT-549 breast
SK-MEL-28 melanoma = system: SK-MEL-28 melanoma
MDA-MB-231 breast = system: MDA-MB-231 breast
HCT-116 colon = system: HCT-116 colon
MDA-N = system: MDA-N
T-47D breast = system: T-47D breast
HCT-15 colon = system: HCT-15 colon
HOP-92 NSCLC = system: HOP-92 NSCLC
SK-MEL-2 melanoma = system: SK-MEL-2 melanoma
OVCAR-5 ovarian = system: OVCAR-5 ovarian
HS 578T breast = system: HS 578T breast
KM12 colon = system: KM12 colon
A498 renal = system: A498 renal
A549 NSCLC = system: A549 NSCLC
CAKI-1 renal = system: CAKI-1 renal
HL-60(TB) leukemia = system: HL-60(TB) leukemia
NCI-H23 lung = system: NCI-H23 lung
SF-295 CNS = system: SF-295 CNS
HT29 colon = system: HT29 colon
MCF7 breast = system: MCF7 breast
OVCAR-3 ovarian = system: OVCAR-3 ovarian
RXF 393 renal = system: RXF 393 renal
IGROV1 ovarian = system: IGROV1 ovarian
NCI/ADR-RES ovarian = system: NCI/ADR-RES ovarian
HCC-2998 colon = system: HCC-2998 colon
MALME-3M melanoma = system: MALME-3M melanoma
SR leukemia = system: SR leukemia
RPMI-8226 leukemia = system: RPMI-8226 leukemia
K-562 leukemia = system: K-562 leukemia

## CC(C)(C)C(=O)c1c(O)c2ccccc2c2ccccc2c1=O
786-0 renal
  TGI: > 100 µM
SF-268 CNS
  TGI: > 100 µM
SK-OV-3 ovarian
  TGI: > 100 µM
SF-539 CNS
  TGI: > 100 µM
EKVX NSCLC
  TGI: > 100 µM
NCI-H226 lung
  TGI: > 100 µM
ACHN renal
  TGI: > 100 µM
NCI-H460 lung
  TGI: > 100 µM
UACC-62 melanoma
  TGI: > 100 µM
COLO 205 colon
  TGI: > 100 µM
NCI-H522 lung
  TGI: > 100 µM
LOX IMVI melanoma
  TGI: > 100 µM
DU-145 prostate
  TGI: > 100 µM
UO-31 renal
  TGI: > 100 µM
SNB-75 CNS
  TGI: > 100 µM
SN12C renal
  TGI: > 100 µM
MOLT-4 leukemia
  TGI: > 100 µM
HOP-62 NSCLC
  TGI: > 100 µM
TK-10 renal
  TGI: > 100 µM
UACC-257 melanoma
  TGI: > 100 µM
OVCAR-8 ovarian
  TGI: > 100 µM
PC-3 prostate
  TGI: > 100 µM
U251 CNS
  TGI: > 100 µM
M14 melanoma
  TGI: > 100 µM
CCRF-CEM leukemia
  TGI: > 100 µM
OVCAR-4 ovarian
  TGI: > 100 µM
MDA-MB-435
  TGI: > 100 µM
SK-MEL-5 melanoma
  TGI: > 100 µM
SNB-19 CNS
  TGI: > 100 µM
SW-620 colon
  TGI: > 100 µM
BT-549 breast
  TGI: 91.6 µM
SK-MEL-28 melanoma
  TGI: > 100 µM
MDA-MB-231 breast
  TGI: > 100 µM
HCT-116 colon
  TGI: > 100 µM
MDA-N
  TGI: > 100 µM
T-47D breast
  TGI: > 100 µM
HCT-15 colon
  TGI: > 100 µM
HOP-92 NSCLC
  TGI: > 100 µM
SK-MEL-2 melanoma
  TGI: > 100 µM
OVCAR-5 ovarian
  TGI: > 100 µM
HS 578T breast
  TGI: > 100 µM
KM12 colon
  TGI: > 100 µM
A498 renal
  TGI: > 100 µM
A549 NSCLC
  TGI: > 100 µM
CAKI-1 renal
  TGI: > 100 µM
HL-60(TB) leukemia
  TGI: > 100 µM
NCI-H23 lung
  TGI: > 100 µM
SF-295 CNS
  TGI: > 100 µM
HT29 colon
  TGI: > 100 µM
MCF7 breast
  TGI: > 100 µM
OVCAR-3 ovarian
  TGI: > 100 µM

## [N-]=[N+]=CC(=O)C1CCN(c2ccccc2)C1=O (configuration not stated)
786-0 renal
  TGI: > 10 µM
SF-268 CNS
  TGI: > 10 µM
SK-OV-3 ovarian
  TGI: > 10 µM
SF-539 CNS
  TGI: > 10 µM
EKVX NSCLC
  TGI: > 10 µM
RXF 393 renal
  TGI: > 10 µM
NCI-H226 lung
  TGI: > 10 µM
IGROV1 ovarian
  TGI: > 10 µM
ACHN renal
  TGI: > 10 µM
NCI-H460 lung
  TGI: > 10 µM
UACC-62 melanoma
  TGI: > 10 µM
COLO 205 colon
  TGI: > 10 µM
LOX IMVI melanoma
  TGI: > 10 µM
DU-145 prostate
  TGI: > 10 µM
UO-31 renal
  TGI: > 10 µM
NCI/ADR-RES ovarian
  TGI: > 10 µM
SN12C renal
  TGI: > 10 µM
MOLT-4 leukemia
  TGI: > 10 µM
HOP-62 NSCLC
  TGI: > 10 µM
TK-10 renal
  TGI: > 10 µM
HCC-2998 colon
  TGI: > 10 µM
UACC-257 melanoma
  TGI: > 10 µM
MALME-3M melanoma
  TGI: > 10 µM
OVCAR-8 ovarian
  TGI: > 10 µM
PC-3 prostate
  TGI: > 10 µM
SR leukemia
  TGI: > 10 µM
U251 CNS
  TGI: > 10 µM
M14 melanoma
  TGI: > 10 µM
CCRF-CEM leukemia
  TGI: > 10 µM
OVCAR-4 ovarian
  TGI: > 10 µM
MDA-MB-435
  TGI: > 10 µM
SK-MEL-5 melanoma
  TGI: > 10 µM
SNB-19 CNS
  TGI: > 10 µM
SW-620 colon
  TGI: > 10 µM
BT-549 breast
  TGI: > 10 µM
SK-MEL-28 melanoma
  TGI: > 10 µM
MDA-MB-231 breast
  TGI: > 10 µM
HCT-116 colon
  TGI: > 10 µM
MDA-N
  TGI: > 10 µM
T-47D breast
  TGI: > 10 µM
HCT-15 colon
  TGI: > 10 µM
SK-MEL-2 melanoma
  TGI: > 10 µM
OVCAR-5 ovarian
  TGI: > 10 µM
HS 578T breast
  TGI: > 10 µM
KM12 colon
  TGI: > 10 µM
A498 renal
  TGI: > 10 µM
A549 NSCLC
  TGI: > 10 µM
CAKI-1 renal
  TGI: > 10 µM
HL-60(TB) leukemia
  TGI: > 10 µM
RPMI-8226 leukemia
  TGI: > 10 µM
NCI-H23 lung
  TGI: > 10 µM
SF-295 CNS
  TGI: > 10 µM
HT29 colon
  TGI: > 10 µM
MCF7 breast
  TGI: > 10 µM
K-562 leukemia
  TGI: > 10 µM
OVCAR-3 ovarian
  TGI: > 10 µM
